Measured values taken from PubChem BioAssay (NCI).
Values joined by “and” are separate entries in the source; they are usually repeats but may differ in a detail not shown here. Equal entries are not always repeated.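 All cell lines were grown in 96-well plates and treated with compound for 48 hours. GI50: concentration for 50% inhibition of growth. TGI marks complete inhibition of growth.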 *1 amine or outer side, *2 acyl side, *3 side chain or, on linkers, in order; H or OH if unused. Where a SMILES comes first, the peptide text is derived from it. [ ]: non-standard residue; d: D form. The star is where a group is joined. X12 = NCCCCC(N[*:1])C(=O)CN1CCCC1C(=O)[*:2]; Pentadecanoyl = CCCCCCCCCCCCCCC(=O)*

Experiments:
Experiment in all cases: inhibition of tumour cell growth, NCI panel, 48 h
A549 NSCLC = test system: A549 NSCLC
EKVX NSCLC = test system: EKVX NSCLC
HL-60(TB) leukemia = test system: HL-60(TB) leukemia
MCF7 breast = test system: MCF7 breast
NCI-H460 lung = test system: NCI-H460 lung
NCI/ADR-RES ovarian = test system: NCI/ADR-RES ovarian
SF-539 CNS = test system: SF-539 CNS
SK-OV-3 ovarian = test system: SK-OV-3 ovarian
MOLT-4 leukemia = test system: MOLT-4 leukemia
MDA-N = test system: MDA-N

SMILES	TGI (A549 NSCLC) [µM]	TGI (EKVX NSCLC) [µM]	TGI (HL-60(TB) leukemia) [µM]	TGI (MCF7 breast) [µM]	TGI (NCI-H460 lung) [µM]	TGI (NCI/ADR-RES ovarian) [µM]	TGI (SF-539 CNS)	TGI (SK-OV-3 ovarian) [µM]	TGI (MOLT-4 leukemia)	TGI (MDA-N) [µM]	GI50 (A549 NSCLC) [µM]	GI50 (EKVX NSCLC) [µM]	GI50 (HL-60(TB) leukemia) [µM]	GI50 (MCF7 breast)	GI50 (MOLT-4 leukemia) [µM]	GI50 (NCI-H460 lung) [µM]	GI50 (NCI/ADR-RES ovarian) [µM]	GI50 (SF-539 CNS) [µM]	GI50 (SK-OV-3 ovarian) [µM]
CC1[C@@H]2C[C@@H]3O[C@@]34[C@H]3CCC5Cc6nc7c(nc6C[C@@]5(C)C3(O)CC(=O)[C@@]24CO[C@]12OC(C)(C)CC2O)CC1CC[C@@H]2C3=C[C@H]4O[C@@]5(O[C@@](C)(CO)C[C@@H]5O)C(C)[C@@]4(O)[C@]3(C)[C@@H](O)CC2[C@]1(C)C7 (stereo not given in full)	1.16	1.03	0.0305	> 3.52	0.479	> 3.52	0.115 µM	0.231											
Cc1cc(N)c2cc(NC(=O)CCCCCCCCC(=O)Nc3ccc4nc(C)cc(N)c4c3)ccc2n1	> 31.6	> 89	> 100		> 100		26.5 µM	> 100	> 39.8 µM										
COC1OC2COC(c3ccccc3)OC2C(OC(=S)c2ccccc2)C1O (stereo not given)	33.7	5.82		> 100	> 100	79	27.7 µM	58.2	> 100 µM	> 100									
O=C(OCC(OC(=O)c1ccccc1)C1CC(C(O)C2CCCCC2)C(=O)O1)c1ccccc1 (stereo not given)		> 100	37	96.7	> 100	> 100	66.1 µM	> 100	47.9 µM	> 100									
O=C(c1cccs1)N(C(=O)N1CCCCC1)c1ccccc1		> 100	> 100	> 100		> 100	> 100 µM	> 100	> 100 µM	> 100									
CC1CC/C(=C\c2ccc(F)cc2)C2=C1C(c1ccc(F)cc1)NC(=S)N2 (stereo not given)		79.3	> 100	> 100	> 100	> 100	> 100 µM	> 100	> 100 µM	> 100									
CCCCCCCCCCCCCCC(=O)NC(CCCCN)C(=O)CN1CCCC1C(=O)NCC(=O)NC(Cc1ccccc1)C(=O)N1CCCC1C(=O)NC(CO)C(=O)NC(Cc1ccc(O)cc1)C(=O)NC(CCCCN)C(=O)NC(CC(C)C)C(=O)NC(CCCN=C(N)N)C(=O)N1CCCC1C(=O)NCC(N)=O (stereo not given) (Pentadecanoyl-[X12]GFPSYKLRPG-NH2; configuration not given here)	47.6	60.5	90.8	61.3	83.7	43.7	59.9 µM	43.4	34.6 µM		23.7	25.9	27.3	27.6 µM	16.3	28.3	20.6	27.2	23.5
c1ccc(C2C3=C(CCCC3)Nc3nnnn32)cc1 (stereo not given)	> 100		> 100	> 100	> 100	> 100	> 100 µM	> 100	> 100 µM	> 100									
C(=N\Nc1nnc(-c2nnc(N/N=C/c3ccccc3)o2)o1)/c1ccccc1	> 10	> 10	> 10	> 10	> 10	> 10	> 10 µM		> 10 µM	> 10									
COc1ccc(-c2nc3ncccn3c2-c2ccc(S(C)(=O)=O)cc2)cc1	> 100		> 100	81.8	> 100	> 100	> 100 µM	> 100	> 100 µM										
NS(=O)(=O)c1ccc(NS(=O)(=O)c2ccc(NC(=O)N(c3ccccc3)c3ccccc3)cc2)cc1	> 100	> 100		> 100	> 100	> 100			> 100 µM	> 100									
CN(C)CCSc1nccc(-c2ccc(-c3ccnc(SCCN(C)C)n3)s2)n1	31.7	37.4	6.01	16.9	9.86	19.9	20.4 µM	47.2	10 µM										
COc1ccc(Cn2nc(OCc3ccccc3)c3cc([N+](=O)[O-])ccc32)cc1	> 100		> 100	> 100	> 100	> 100	> 100 µM	> 100	> 100 µM	> 100									
C/C(=C\c1ccccc1)n1c(=O)cc(C)n1C	> 100	> 100		> 100	> 100	> 100	> 100 µM	> 100	> 100 µM	> 100									
Cc1cc(C)c(N)c(CO)c1	> 100	> 100		> 100	> 100	> 100	> 100 µM	> 100	> 100 µM	> 100				7.28 µM and 16 µM					
N#Cc1nc(C(=O)c2ccccc2)oc1N	> 100	> 100	> 100	> 100				> 100	> 100 µM	> 100									
O=c1[nH]c(=O)c2c([nH]1)[nH]c1ccccc12	> 100	> 100		> 100		> 100	> 100 µM	> 100	> 100 µM	> 100									
O=S1(=O)OCCOS(=O)(=O)C1S(=O)(=O)c1cccc2ccccc12	> 100	> 100	> 100	> 100	> 100	> 100			> 100 µM	> 100									
COc1ccc(OC)c([N+](=O)[O-])c1-c1nc2sc(C)cn2c1/C=N/N=C(N)N	> 100	> 100		> 100	> 100	> 100	> 100 µM												
COc1cccc2c1C(=O)c1c(O)c3c(c(O)c1C2=O)C[C@@](O)(C(=O)CO)CC3OC1CC(NCCCCC(OC(C)=O)OC(C)=O)C(O)C(C)O1 (stereo not given in full)		0.0143	0.00428		0.319		0.00421 µM and 0.0374 µM	> 1	0.00909 µM and 0.00236 µM			0.00368			0.000378			0.00296	0.00567
C[S+](C)C1(c2ccccc2)C(=O)c2ccccc2C1=O	97.7	76.9	> 31.6	> 100	> 100	> 100	> 68.1 µM	> 100	> 100 µM										
CC(=O)O[C@H]1CC[C@]2(C=O)[C@H]3CC[C@]4(C)[C@@H](C5=CC(=O)OC5)CC[C@]4(O)[C@@H]3CC[C@]2(O)C1	0.253	0.615	5.18		0.274	0.467	0.26 µM	0.802	0.0798 µM	0.97									
